Source: paper PMC9374744, “Structural basis for receptor selectivity and inverse agonism in S1P5 receptors” (Nature Communications, 2022)
Where “and” joins values, the source holds several entries; their conditions need not be identical. Equal values may be shown once.

Tests used:
Conditions in all cases: inverse agonism
human S1P5 E112A mutant = human S1P5 E112A mutant (Homo sapiens, UniProt Q9H228, E112A); test: BRET-based cAMP Gi signaling assay, S1P5 E112A
human S1P5 R111Q mutant = human S1P5 R111Q mutant (Homo sapiens, UniProt Q9H228, R111Q); test: BRET-based cAMP Gi signaling assay, S1P5 R111Q
Sequence of human S1P5 R111Q mutant (Q9H228 whole entry R111Q): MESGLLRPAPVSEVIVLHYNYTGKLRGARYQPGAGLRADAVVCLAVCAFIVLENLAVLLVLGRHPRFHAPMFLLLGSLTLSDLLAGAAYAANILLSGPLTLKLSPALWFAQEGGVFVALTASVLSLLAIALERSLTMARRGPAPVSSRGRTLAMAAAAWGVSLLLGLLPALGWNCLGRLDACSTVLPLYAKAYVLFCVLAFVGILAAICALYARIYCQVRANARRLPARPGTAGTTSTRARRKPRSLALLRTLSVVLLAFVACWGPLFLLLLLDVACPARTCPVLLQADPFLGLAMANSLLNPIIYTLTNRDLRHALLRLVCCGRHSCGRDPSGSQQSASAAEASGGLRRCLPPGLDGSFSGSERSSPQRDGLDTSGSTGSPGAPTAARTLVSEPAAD

human S1P5 N92A mutant = human S1P5 N92A mutant (Homo sapiens, UniProt Q9H228, N92A); test: BRET-based cAMP Gi signaling assay, S1P5 N92A
Sequence of human S1P5 N92A mutant (Q9H228 whole entry N92A): as the sequence (Q9H228 whole entry R111Q) above, with N92A, Q111R counted along it

human S1P5 L292A mutant = human S1P5 L292A mutant (Homo sapiens, UniProt Q9H228, L292A); test: BRET-based cAMP Gi signaling assay, S1P5 L292A
Sequence of human S1P5 L292A mutant (Q9H228 whole entry L292A): as the sequence (Q9H228 whole entry R111Q) above, with Q111R, L292A counted along it

human S1P5 Y19A mutant = human S1P5 Y19A mutant (Homo sapiens, UniProt Q9H228, Y19A); test: BRET-based cAMP Gi signaling assay, S1P5 Y19A
Sequence of human S1P5 Y19A mutant (Q9H228 whole entry Y19A): as the sequence (Q9H228 whole entry R111Q) above, with Y19A, Q111R counted along it

human S1P5 L292V mutant = human S1P5 L292V mutant (Homo sapiens, UniProt Q9H228, L292V); test: BRET-based cAMP Gi signaling assay, S1P5 L292V
Sequence of human S1P5 L292V mutant (Q9H228 whole entry L292V): as the sequence (Q9H228 whole entry R111Q) above, with Q111R, L292V counted along it

human S1P5 L318Q mutant = human S1P5 L318Q mutant (Homo sapiens, UniProt Q9H228, L318Q); test: BRET-based cAMP Gi signaling assay, S1P5 L318Q
Sequence of human S1P5 L318Q mutant (Q9H228 whole entry L318Q): as the sequence (Q9H228 whole entry R111Q) above, with Q111R, L318Q counted along it

[1] = Figure 2c source data, N/R = no response

Sequence of human S1P5 E112A mutant (Q9H228 whole entry E112A): as the sequence (Q9H228 whole entry R111Q) above, with Q111R, E112A counted along it

`O=C(O)CCCN1CCc2cccc(OCCc3cccc4ccccc34)c2CC1` [ONO-5430608, 4-{6-[2-(1-naphthyl)ethoxy]-1,2,4,5-tetrahydro-3H-3-benzazepin-3-yl} butanoic acid] was tested, and the “ONO-5430608 pEC50, single experiments #1-#3” value (“ONO-5430608 pEC50” below) (human S1P5 E112A mutant; [1]) was “N/R”, the “ONO, pEC50, M” value (human S1P5 E112A mutant; n=3, N/R = no response) was “N/R” and the “ONO-5430608 pEC50” value (human S1P5 R111Q mutant; [1]) was “N/R”. For the same molecule, the “ONO, pEC50, M” value (human S1P5 R111Q mutant; n=3, N/R = no response) was “N/R”, the “ONO-5430608 pEC50” value (human S1P5 N92A mutant; [1]) was “N/R” and the “ONO, pEC50, M” value (human S1P5 N92A mutant; n=3, N/R = no response) was “N/R”. The EC50 (human S1P5 L292A mutant; ONO, pEC50, M, L292A, mean ± SD, n=3) was 21.9 nM, the EC50 (human S1P5 L292A mutant; ONO-5430608 pEC50, single experiments #1-#3, L292A, Figure 2c source data) was 18.9 nM and 24 nM and 23.2 nM and the “ONO-5430608 pEC50” value (human S1P5 Y19A mutant; [1]) was “N/R”. For the same molecule, the “ONO, pEC50, M” value (human S1P5 Y19A mutant; n=3, N/R = no response) was “N/R”, the EC50 (human S1P5 L292V mutant; ONO, pEC50, M, L292V, mean ± SD, n=3) was 23.4 nM and the EC50 (human S1P5 L292V mutant; ONO-5430608 pEC50, single experiments #1-#3, L292V, Figure 2c source data) was 23 nM and 25.6 nM and 22.5 nM. The EC50 (human S1P5 L318Q mutant; ONO, pEC50, M, L318Q, mean ± SD, n=3) was 22.4 nM and the EC50 (human S1P5 L318Q mutant; ONO-5430608 pEC50, single experiments #1-#3, L318Q, Figure 2c source data) was 23 nM and 24.6 nM and 20.4 nM.
